Test results from article PMC12056667 (Chemical Science, 2025).
Where two headings read alike, the source gives them in different places.

Tests used:
Tet(X4) [1] = molecular target: T1, Tet(X4) (Escherichia coli, UniProt A0A3T0V9Y5); assay: Turnover of probe 6 (absorbance and LC-MS); type: biochemical; conditions: with NADPH; decrease of A400 and +16 Da species by LC-MS
Description: To investigate whether fluorescent probe 6 binds to the active site of the Tet(X) enzymes, we carried out docking of the probe with Tet(X4)[8] (ESI Fig. S10 ^†). […] We thus considered that probe 6 may be hydroxylated by Tet(X4) when NADPH was added to initiate turnover. We monitored turnover of probe 6 using an absorbance-readout assay with Tet(X4) adapted from previous studies.[33] A decrease in absorbance at 400 nm was observed, consistent with hydroxylation, but was not seen in a control reaction lacking Tet(X4) (ESI Fig. S11 ^†). This observation was corroborated by LC-MS analysis of the reaction (ESI Fig. S12 ^†). Appearance of an apparently mono-hydroxylated species with mass 989.348 Da (calculated mass: 989.3504 Da) was observed, +16 Da relative to the starting material (measured mass: 973.355 Da; calculated mass: 973.3555 Da).
233 Absorbance Activity Assays […]
243 CLARIOstar Plus Microplate reader. The absorbance was monitored at wavelength […] over the […]
245 calculated by measuring the rate of change of A400 during the initial linear regime. […]
(§1) 247 function of log10([Inhibitor]) in molar units, and the IC50 was determined as above. […]
252 reaction was monitored by recording the absorbance spectra between 200-800 nm at one-minute […]
261 Quenched samples were stored at -20 °C prior to analysis. Samples were analysed using a Xevo G2-XS […]

Tet(X4) [2] = molecular target: T1, Tet(X4); assay: Fluorescence polarisation binding assay of probes with purified TDase
Description: (§2) NADPH was not included to prevent turnover of the probe to the hydroxylated product, which would likely have a lower binding affinity than the initial probes. Screens were conducted in pH 7.0 buffer with addition of 0.01% Triton-X100 detergent in non-binding plates to minimise adsorption to the plate wells.[45]
Aliquots of TDases were thawed and serially diluted with the assay buffer (100 mM Tris, pH 7.0 with 0.01% Triton X-100) in a V-bottom 96-well plate (Greiner Bio-One). 12.5 μL of each concentration of enzyme was transferred in quadruplicate to a 384-well black, non-binding microtiter plate (Greiner Bio-One). […] 12.5 μL of this solution was added to wells containing enzyme. A negative control of 12.5 μL of the probe solution with 12.5 μL of the assay buffer was included on each plate. The plate was briefly centrifuged (1000 rpm), then incubated at ambient temperature for 30 min before measuring the FP response using a PHERAstar FS microplate reader (BMG Labtech) equipped with an FP optic module (excitation = 540 ± 20 nm, Emission = 590 ± 20 nm, 200 flashes per well). ΔmP values were calculated by subtracting the average mP of the negative controls from the mP measured for each well. To calculate Kd values, the derived ΔmP values were plotted as a function of enzyme concentration and a one-site specific binding model was applied (GraphPad Prism 9.4.1).

Tet(50) = molecular target: T2, Tet(50) (Unknown prokaryotic organism, UniProt A0A059WYP6); assay: as above; conditions: for Kd: 25 nM probe, 5 mM MgCl2, 1 μM FAD, 100 mM Tris pH 7.0, 0.01% Triton X-100; for binding to Tet(50) (in words): up to a concentration of 5 μM of enzyme
T2 construct: made in house; host or cells: E. coli BL21(DE3)
Description: as §2
(§3) Aliquots of TDases were thawed and serially diluted with the assay buffer (100 mM Tris, pH 7.0 with 0.01% Triton X-100) in a V-bottom 96-well plate (Greiner Bio-One). 12.5 μL of each concentration of enzyme was transferred in quadruplicate to a 384-well black, non-binding microtiter plate (Greiner Bio-One). Aliquots of 2 mM stock of fluorescent probes 5 and 6 in DMSO were thawed and diluted to 50 nM in the assay buffer with 2 μM FAD and 10 mM MgCl2. 12.5 μL of this solution was added to wells containing enzyme. A negative control of 12.5 μL of the probe solution with 12.5 μL of the assay buffer was included on each plate. The plate was briefly centrifuged (1000 rpm), then incubated at ambient temperature for 30 min before measuring the FP response using a PHERAstar FS microplate reader (BMG Labtech) equipped with an FP optic module (excitation = 540 ± 20 nm, Emission = 590 ± 20 nm, 200 flashes per well). ΔmP values were calculated by subtracting the average mP of the negative controls from the mP measured for each well. To calculate Kd values, the derived ΔmP values were plotted as a function of enzyme concentration and a one-site specific binding model was applied (GraphPad Prism 9.4.1).

Tet(X2) = molecular target: T3, Tet(X2) (Bacteroides thetaiotaomicron, UniProt Q93L51); assay: as above
T3 construct: For Tet(X2), the full-length protein was prepared rather that the Δ1–10 mutant used previously for crystallographic studies; made in house; host or cells: E. coli BL21(DE3)
Description: as §2, §3

Tet(X7) = assay: as above; conditions: 25 nM probe, 5 mM MgCl2, 1 μM FAD, 100 mM Tris pH 7.0, 0.01% Triton X-100
Description: as §2, §3

Tet(X5) = assay: as above; conditions: 25 nM probe, 5 mM MgCl2, 1 μM FAD, 100 mM Tris pH 7.0, 0.01% Triton X-100
Description: as §2, §3

Tet(X4) [3] = molecular target: T1, Tet(X4); assay: Absorbance activity assay (tigecycline turnover, A400); type: biochemical; conditions: for inhibition in the absorbance assay (in words): AZT up to 1 mM
Text: We then tested the binding of reported type 1 TDase inhibitors to Tet(X4) (Fig. 3f, ESI Fig. S17 ^†).[33,38,39] […] These compounds gave similar apparent IC50^app values, in accord with trends in IC50 measurements performed by Markley et al.[33] […] We also developed a complementary endpoint activity assay where the turnover of tigecycline by Tet(X4) in a 96-well plate was quenched by addition of 1%v/v formic acid and analysed chromatographically. The peak integrals of tigecycline and its hydroxylated degradation product at 254 nm following UPLC analysis were measured to determine turnover (Fig. 5a). As this method separates components by chromatography, it enables IC50 measurements independent of potential interference from UV-active inhibitors (Fig. 5b). […] The apparent synergy of AZT with tetracyclines against whole cells expressing Tet(X4)[40] is therefore interesting and may derive from the proposed ability of AZT to interfere with DNA synthesis in bacteria,[40,53] or other unidentified mechanisms. […] Note, however, that plumbagin and 2-MNQ are naphthoquinones, which are well-characterised redox-active pan-assay interference (PAINS) moieties.[54]
233 Absorbance Activity Assays
234 A solution containing 100 mM TAPS (pH 8.5), 2 µM FAD, 10 mM MgCl2 and 100 nM Tet(X4) was
235 dispensed into a 384 well µClear plate (Greiner Bio-One), 25 µL per well, using a microplate reagent
236 dispenser. A 3-fold, 10-point dilution series of the substrates and inhibitors was made in DMSO with
237 the highest concentration of 50 mM, unless otherwise stated, and transferred to the enzyme solution in
238 technical quadruplicate using a CyBi-Well (CyBio) liquid-handling robot (1 µL per well). On each plate,
239 a column of no enzyme negative controls and no inhibitor (DMSO only) positive controls were
240 included. The plate was briefly centrifuged (1000 rpm), then incubated (ambient temperature,15 min).
241 A solution containing 100 mM TAPS (pH 8.5), 50 µM tigecycline and 500 µM NADPH was then
242 dispensed, with 25 µL per well. The plate was briefly centrifuged (1000 rpm), then transferred to a
243 CLARIOstar Plus Microplate reader. The absorbance was monitored at wavelength […] over the
244 course of 2 hours (23 flashes / cycle, 180 s cycle time, 41 data points, 25 ° C). The initial rate was
245 calculated by measuring the rate of change of A400 during the initial linear regime. Initial rates were
246 normalised between positive and negative controls. The normalised % response was plotted as a
as §1

Tet(X4) [4] = molecular target: T1, Tet(X4); assay: FP competitive displacement of probe 6; type: binding; conditions: for IC50: IC50app, FP assay, 25 nM 6, 40 nM Tet(X4), 5 mM MgCl2, 1 μM FAD, 100 mM Tris pH 7.0, 0.01% Triton X-100; for displacement of probe 6 / competitive binding (in words): up to a maximum concentration of 100 μM
In short: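 FP displacement of probe 6 (added as 50 nM solution) from Tet(X4) (2× mix: 80 nM enzyme, 2 μM FAD, 10 mM MgCl2), 30 min at ambient temperature. Dose-response used 3-fold, 10-point DMSO series (top 5 or 0.5 mM stock). IC50^app came from a Hill fit of control-normalised response. Library screening used 10 μM compound, 0.1% DMSO, […].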

Tet(X4) [5] = molecular target: T1, Tet(X4); assay: biochemical
Description: We then tested the binding of reported type 1 TDase inhibitors to Tet(X4) (Fig. 3f, ESI Fig. S17 ^†).[33,38,39] […] We also developed a complementary endpoint activity assay where the turnover of tigecycline by Tet(X4) in a 96-well plate was quenched by addition of 1%v/v formic acid and analysed chromatographically. The peak integrals of tigecycline and its hydroxylated degradation product at 254 nm following UPLC analysis were measured to determine turnover (Fig. 5a).
[…] A 3-fold, 10-point dilution series of the substrates and inhibitors was made in DMSO with a top concentration of 10 mM, unless otherwise stated, and transferred to the enzyme solution using a CyBi-Well liquid-handling robot (CyBio), 1 μL per well. On each plate, a column of no enzyme negative controls and no inhibitor (DMSO only) positive controls were included. The plate was incubated at 30 °C for 15 min. A solution containing 100 mM TAPS (pH 8.5), 40 μM tigecycline and 200 μM NADPH was then dispensed, with 49 μL per well. The plate was incubated at 30 °C for 20 min at 600 rpm. 10 μL of 10%v/v formic acid solution was then dispensed into all wells. Samples were analysed using an ACQUITY H-Class PLUS UPLC instrument (Waters) equipped with a pre-equilibrated ACQUITY BEH C18 column ([…], […], Waters) using a gradient of 1–50%v/v acetonitrile with 0.1%v/v formic acid in water with 0.1%v/v formic acid over 1.83 minutes at a flow rate of 0.5 mL min^−1. Instrument control and data processing were performed using MassLynx V4.1 software. The peaks representing tigecycline and 11a-hydroxy-tigecycline were integrated, used to calculate % conversion and then normalised between positive and negative controls. The normalised % response was plotted as a function of log10[Inhibitor], and the IC50 determined as described above.

| SMILES | turnover by Tet(X4) (in words) (Tet(X4) [1]) | Kd (Tet(X4) [2]; Kd, 25 nM probe, 5 mM MgCl2, 1 μM FAD, 100 mM Tris pH 7.0, 0.01% Triton X-100) [µM] | Kd (Tet(X4) [2]; apparent Kd, with 5 mM MgCl2) [µM] | Kd (Tet(X4) [2]; apparent Kd, without MgCl2) [µM] | Kd (Tet(50)) [µM] | binding to Tet(50) (in words) (Tet(50)) | Kd (Tet(X2)) [µM] | Kd (Tet(X7)) [µM] | Kd (Tet(X5)) [µM] | Kd (Tet(X4) [2]; 25 nM probe, 5 mM MgCl2, 1 μM FAD, 100 mM Tris pH 7.0, 0.01% Triton X-100, read-out: Kd) [µM] | IC50 (Tet(X4) [3]) [µM] | inhibition in the absorbance assay (in words) (Tet(X4) [3]) | IC50 (Tet(X4) [4]) [µM] | displacement of probe 6 / competitive binding (in words) (Tet(X4) [4]) | inhibition in the UPLC assay (in words) (Tet(X4) [5]) | IC50 (Tet(X4) [5]; IC50, UPLC assay) [µM] | IC50 (Tet(X4) [5]; 20 μM tigecycline, 50 nM Tet(X4), 100 μM NADPH, 5 mM MgCl2, 1 μM FAD, 100 mM TAPS pH 8.5, read-out: IC50, UPLC assay) [µM] | inhibition in the UPLC assay (in words) (Tet(X4) [5]; AZT up to 100 μM) |
| --- | --- | --- | --- | --- | --- | --- | --- | --- | --- | --- | --- | --- | --- | --- | --- | --- | --- | --- |
| CN(C)c1ccc2c(-c3ccc(NC(=S)NCC(=O)Nc4cc(N(C)C)c5c(c4O)C(=O)C4=C(O)[C@]6(O)C(=O)C(C(N)=O)=C(O)C(N(C)C)[C@@H]6C[C@@H]4C5)cc3C(=O)[O-])c3ccc(=[N+](C)C)cc-3oc2c1 (stereo partly drawn) [Probe 6, TRITC-glycyl-minocycline] | can be turned over | 0.0173 ± 0.0019 | 0.0181 ± 0.0024 | 0.188 ± 0.033 | > 5 | no detectable binding | 0.0224 ± 0.004 | 0.0405 ± 0.0051 | 0.0106 ± 0.0013 | – | – | – | – | – | – | – | – | – |
| CN(C)c1ccc2c(-c3ccc(C(=O)NCC(=O)Nc4cc(N(C)C)c5c(c4O)C(=O)C4=C(O)[C@]6(O)C(=O)C(C(N)=O)=C(O)[C@H](N(C)C)[C@@H]6C[C@@H]4C5)cc3C(=O)[O-])c3ccc(=[N+](C)C)cc-3oc2c1 [Probe 5] | – | – | – | – | > 5 | no detectable binding | 0.0669 ± 0.0103 | 0.126 ± 0.015 | 0.0299 ± 0.0027 | 0.0465 ± 0.0041 | – | – | – | – | – | – | – | – |
| Cc1cn([C@H]2C[C@H](N=[N+]=[N-])[C@@H](CO)O2)c(=O)[nH]c1=O [Azidothymidine] | – | – | – | – | – | – | – | – | – | – | > 1000 | No inhibition | > 100 | minimal competitive binding | No inhibition | > 100 | – | – |
| CC1=CC(=O)c2c(O)cccc2C1=O [Plumbagin] | – | – | – | – | – | – | – | – | – | – | 49.1 ± 4.9 | moderate | > 100 | minimal competitive binding | – | – | 37.2 ± 8.2 | moderate |
